Experimental data reported in patent US10258621B2, “Methods and compositions for treating HIV-related disorders” (CHDI Foundation, Inc., priority 2014, dated 2019).
Entries after “also recorded” stand apart in the source; their conditions may differ. Blank lines part the entries; values can stand above or below the molecule they belong to.

Assays:
[1] = molecular target: T1, KMO (Homo sapiens, UniProt O15229); assay: KMO inhibition: L-kynurenine hydroxylation to 3OH-KYN monitored by LC/MS; assay type: biochemical; settings: 10 μM compound
T1 construct: GST; His; expressed in transfected cells; host or cells: CHO (CHO-GST HIS KMO cell line)
T1 sequence (O15229 whole entry): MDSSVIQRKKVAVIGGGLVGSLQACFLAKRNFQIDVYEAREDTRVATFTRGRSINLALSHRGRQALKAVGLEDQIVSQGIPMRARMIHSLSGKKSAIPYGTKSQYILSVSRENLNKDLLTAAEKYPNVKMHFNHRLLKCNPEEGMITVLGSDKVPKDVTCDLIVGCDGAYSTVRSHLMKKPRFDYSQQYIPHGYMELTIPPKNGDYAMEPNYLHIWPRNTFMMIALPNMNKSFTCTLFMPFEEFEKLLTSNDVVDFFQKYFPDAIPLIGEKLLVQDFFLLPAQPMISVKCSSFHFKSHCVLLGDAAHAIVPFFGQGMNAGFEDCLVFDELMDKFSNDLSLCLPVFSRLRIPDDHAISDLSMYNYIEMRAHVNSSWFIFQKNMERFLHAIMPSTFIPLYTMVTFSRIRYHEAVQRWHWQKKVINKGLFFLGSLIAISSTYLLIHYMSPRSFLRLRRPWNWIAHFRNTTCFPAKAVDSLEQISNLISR
Method: A generalized procedure for monitoring L-Kynurenine (KYN) hydroxylation to form product 3-Hydroxy-Kynurenine (3OH—KYN) by LC/MS is described below. Product is quantified by multiple reaction monitoring using MS.
IC50's are calculated using automated fitting algorithm (A+ Analysis)
A method of monitoring L-Kynurenine (KYN) hydroxylation to form product 3-Hydroxy-Kynurenine (3OH—KYN) by LC/MS is described below. Product is quantified by multiple reaction monitoring.
• Compound: Stock concentrations: 10 mM in 100% DMSO • Enzyme: KMO enzyme prepared at Evotec via mitochondria isolation from CHO-GST HIS KMO cells • Substrate: L-Kynurenine (Sigma: Cat#K3750) • [stock concentration: 10 mM in 100 mM potassium phosphate buffer, pH 7.4]
IC50's are calculated using automated fitting algorithm (A+ Analysis).
A method of monitoring L-Kynurenine (KYN) hydroxylation to form 3-Hydroxy-Kynurenine (3OH—KYN) by LC/MS is described. Product is quantified by multiple reaction monitoring (MRM method).

[2] = molecular target: NMDA receptor NR2B subunit (Homo sapiens, UniProt Q13224); settings: NMDA receptor agonist; cited from earlier work
Sequence of NMDA receptor NR2B subunit (Q13224 27-1484, other chains not shown): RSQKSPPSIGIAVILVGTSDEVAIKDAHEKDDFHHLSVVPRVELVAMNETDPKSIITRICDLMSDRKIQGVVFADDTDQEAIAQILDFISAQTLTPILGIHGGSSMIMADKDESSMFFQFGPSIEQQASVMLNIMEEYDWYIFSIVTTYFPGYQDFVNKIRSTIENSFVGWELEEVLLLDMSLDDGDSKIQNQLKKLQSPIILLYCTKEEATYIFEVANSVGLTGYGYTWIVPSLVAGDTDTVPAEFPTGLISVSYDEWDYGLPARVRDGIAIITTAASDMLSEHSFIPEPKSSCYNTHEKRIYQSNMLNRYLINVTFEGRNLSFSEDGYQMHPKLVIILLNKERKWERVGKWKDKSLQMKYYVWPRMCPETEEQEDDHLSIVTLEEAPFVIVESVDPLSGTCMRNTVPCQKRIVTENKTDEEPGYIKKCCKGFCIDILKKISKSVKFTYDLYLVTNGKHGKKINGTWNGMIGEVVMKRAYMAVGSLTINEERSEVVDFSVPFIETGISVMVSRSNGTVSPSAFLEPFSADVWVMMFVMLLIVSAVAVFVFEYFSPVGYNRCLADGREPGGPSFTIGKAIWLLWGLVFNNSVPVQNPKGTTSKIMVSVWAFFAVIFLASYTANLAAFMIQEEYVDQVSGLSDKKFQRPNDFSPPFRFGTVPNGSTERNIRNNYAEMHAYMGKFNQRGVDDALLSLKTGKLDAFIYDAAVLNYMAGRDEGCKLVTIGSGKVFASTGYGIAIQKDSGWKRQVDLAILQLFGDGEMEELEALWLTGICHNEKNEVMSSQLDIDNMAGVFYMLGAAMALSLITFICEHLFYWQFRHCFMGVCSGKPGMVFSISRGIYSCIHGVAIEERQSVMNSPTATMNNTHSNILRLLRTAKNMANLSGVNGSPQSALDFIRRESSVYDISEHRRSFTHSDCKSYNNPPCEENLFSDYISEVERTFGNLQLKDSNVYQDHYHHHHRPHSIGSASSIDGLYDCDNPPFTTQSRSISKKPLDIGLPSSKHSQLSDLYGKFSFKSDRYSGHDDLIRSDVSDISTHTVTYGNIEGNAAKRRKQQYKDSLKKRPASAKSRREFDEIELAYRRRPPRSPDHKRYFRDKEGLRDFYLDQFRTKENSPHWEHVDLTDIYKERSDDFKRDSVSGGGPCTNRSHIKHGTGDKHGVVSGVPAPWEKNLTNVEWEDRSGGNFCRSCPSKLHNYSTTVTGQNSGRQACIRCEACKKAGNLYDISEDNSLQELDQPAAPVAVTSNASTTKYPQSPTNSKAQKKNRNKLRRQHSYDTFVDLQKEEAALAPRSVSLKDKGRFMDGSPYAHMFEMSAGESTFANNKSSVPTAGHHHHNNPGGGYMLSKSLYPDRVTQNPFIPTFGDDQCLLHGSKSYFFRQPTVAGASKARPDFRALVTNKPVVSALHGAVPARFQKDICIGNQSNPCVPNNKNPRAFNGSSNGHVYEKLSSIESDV

[3] = molecular target: NMDA receptor NR2A subunit (Homo sapiens, UniProt Q12879); settings: NMDA receptor agonist; cited from earlier work
Sequence of NMDA receptor NR2A subunit (Q12879 23-1464, other chains not shown): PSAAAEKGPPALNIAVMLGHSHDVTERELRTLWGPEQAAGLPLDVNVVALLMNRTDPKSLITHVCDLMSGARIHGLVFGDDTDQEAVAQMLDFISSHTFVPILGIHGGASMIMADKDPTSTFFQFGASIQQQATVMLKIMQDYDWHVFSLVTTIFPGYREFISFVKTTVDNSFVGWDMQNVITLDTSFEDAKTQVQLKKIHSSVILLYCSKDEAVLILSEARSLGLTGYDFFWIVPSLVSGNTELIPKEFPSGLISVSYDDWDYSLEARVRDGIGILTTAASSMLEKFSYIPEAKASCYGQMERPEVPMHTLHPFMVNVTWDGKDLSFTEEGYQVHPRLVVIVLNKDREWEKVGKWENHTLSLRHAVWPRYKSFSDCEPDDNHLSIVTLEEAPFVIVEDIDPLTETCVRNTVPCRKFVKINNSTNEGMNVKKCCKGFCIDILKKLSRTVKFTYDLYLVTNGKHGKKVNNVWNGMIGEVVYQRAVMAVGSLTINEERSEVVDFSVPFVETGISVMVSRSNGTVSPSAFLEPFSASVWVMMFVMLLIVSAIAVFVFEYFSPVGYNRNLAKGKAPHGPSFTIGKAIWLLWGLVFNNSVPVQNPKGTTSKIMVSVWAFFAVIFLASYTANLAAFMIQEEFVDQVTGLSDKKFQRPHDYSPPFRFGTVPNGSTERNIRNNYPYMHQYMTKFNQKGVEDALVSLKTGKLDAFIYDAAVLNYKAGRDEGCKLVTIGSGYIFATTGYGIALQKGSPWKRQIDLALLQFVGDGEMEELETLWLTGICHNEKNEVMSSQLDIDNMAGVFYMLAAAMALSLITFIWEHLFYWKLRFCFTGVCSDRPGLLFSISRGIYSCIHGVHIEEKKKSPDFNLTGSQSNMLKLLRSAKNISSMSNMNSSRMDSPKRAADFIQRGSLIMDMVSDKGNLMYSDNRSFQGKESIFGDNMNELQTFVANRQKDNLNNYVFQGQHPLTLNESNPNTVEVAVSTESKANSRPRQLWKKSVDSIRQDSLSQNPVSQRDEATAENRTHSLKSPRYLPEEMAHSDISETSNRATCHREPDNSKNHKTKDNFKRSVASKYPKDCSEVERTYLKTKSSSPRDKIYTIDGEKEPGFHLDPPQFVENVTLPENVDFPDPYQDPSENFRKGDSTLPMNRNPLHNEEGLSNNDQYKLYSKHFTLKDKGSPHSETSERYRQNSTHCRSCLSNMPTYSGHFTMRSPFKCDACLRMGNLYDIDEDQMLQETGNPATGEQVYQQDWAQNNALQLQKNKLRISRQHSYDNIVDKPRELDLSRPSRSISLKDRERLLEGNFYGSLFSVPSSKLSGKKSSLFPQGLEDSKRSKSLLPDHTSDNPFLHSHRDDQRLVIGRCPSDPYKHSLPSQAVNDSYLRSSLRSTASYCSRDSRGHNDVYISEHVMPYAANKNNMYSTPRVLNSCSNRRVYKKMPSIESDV

[4] = test system: extracellular levels of KYN, KYNA, 3-OH-KYN, AA and QA in the striatum; assay: Microdialysis after PO dosing of kynurenine, Compound 6 or both: extracellular KP metabolites in striatum; assay type: in vivo, adult male WT mice; settings: 30 mg/kg p.o., dosed alone; WT mice
Method: (§1) Animals were anesthetized using isoflurane (2%, 800 mL/min O2). Bupivacain/epinephrine was used for local analgesia, finadyne or carprophen for peri-/post-operative analgesia. The animals were placed in a stereotaxic frame (Kopf instruments, USA). I-shaped probes (membrane: polyacrylonitrile, 3 mm exposed surface; Brainlink, the Netherlands) were inserted in the striatum. After surgery, animals were kept individually in cages; provided food and water ad libitum.
(§2) Experiments were performed one day after surgery. On the day of the experiment, the probes of the animals were connected with flexible PEEK tubing to a microperfusion pump (Harvard PHD 2000 Syringe pump, Holliston, Mass. or similar). The I-shaped microdialysis probes were perfused with aCSF containing 147 mM NaCl, 3.0 mM KCl, 1.2 mM CaCl2 and 1.2 mM MgCl2, at a flow rate of 1.5 μL/min. Microdialysis samples were collected at 20-minute intervals by an automated fraction collector (820 Microsampler, Univentor, Malta or similar) into mini-vials already containing 10 μL 0.02 M formic acid (FA) and 0.04% ascorbic acid in ultrapurified H2O. At t=−30 min vehicle or KMO inhibitor were be administered, to ensure central and peripheral inhibition of KMO at the time of administration of kynurenine. At t=0 vehicle or kynurenine were administered. Microdialysate samples were collected for 240 min after administration of kynurenine. All the dialysis samples were stored at −80° C. awaiting their analysis. Dialysate levels of any or all of KP metabolites KYN, KYNA, 3-OH—KYN, AA and QA were quantified by LC-MS/MS at by Brains On-Line. After the experiment, the mice were sacrificed and terminal brain (striatum+cortex), liver, kidney, plasma and CSF samples were collected for analysis of KP metabolites. Levels of KP metabolites were measured in terminal brain (striatum+cortex), liver, kidney, plasma and CSF samples at Brains On-Line. Finally, levels of kynurenine and KMO inhibitors in dose formulation samples were quantified by Brains On-Line.
A method of examining the pharmacodynamic effects of kynurenine (30 mg/kg, p.o.) and Compound 6 (30 mg/kg, p.o.) on extracellular levels of KYN, KYNA, 3-OH—KYN, AA and QA in the striatum (STR) of adult male WT mice either co-dosed or dosed independently is disclosed.
Furthermore, PO administration of Compound 6 blocks toxic metabolites 3-OH—KYN (see FIG. 10) and QA (see FIG. 11), whereas kynurenine dosing increases them, due to kynurenine catabolism in mice brain.

[5] = test system: KP metabolites (KYN, KYNA, AA, 3-HK) via KMO inhibition; assay: Microdialysis after PO dosing at various dosage levels: KP metabolites in striatum extracellular space; assay type: in vivo; settings: PO 3, 10 or 30 mg/kg; mouse striatum microdialysis
Method: as §1, §2
A method of examining the modulation of KYN, KYNA, AA, and 3-HK via KMO inhibition with Compound 6 in striatum extracellular space is disclosed. […] Following the microdialysis procedure described herein, dialysate levels of KP metabolites KYN, KYNA, 3-HK, and AA were quantified by LC-MS/MS at by Brains On-Line.

[6] = test system: KP metabolite KYNA; assay: Microdialysis after PO dosing in WT and HD (Q175_KI homozygous) animals: KYNA in striatum; assay type: in vivo, mouse; settings: PO 3 mg/kg or 10 mg/kg
Method: as §1
Experiments were performed one day after surgery. On the day of the experiment, the probes of the animals were connected with flexible PEEK tubing to a microperfusion pump (Harvard PHD 2000 Syringe pump, Holliston, Mass. or similar). […] Dialysate levels of any or all of KP metabolites KYN, KYNA, 3-OH—KYN, AA and QA were quantified by LC-MS/MS at by Brains On-Line. […] Levels of KP metabolites were measured in terminal brain (striatum+cortex), liver, kidney, plasma and CSF samples at Brains On-Line. Finally, levels of kynurenine and KMO inhibitors in dose formulation samples were quantified by Brains On-Line.
A method of examining the modulation of KP metabolites in HD animals similar to WT controls is disclosed. […] Following the microdialysis procedure described herein, dialysate levels of KP metabolite KYNA was quantified by LC-MS/MS at by Brains On-Line. […]

Compound: CC[C@@H](C)Oc1ccc(-c2cc(C(=O)O)ncn2)cc1Cl [Compound 5, (R)-6-(4-sec-butoxy-3-chlorophenyl)pyrimidine-4-carboxylic acid]
inhibition at 10 µM [1]: 100%

Compound: CC[C@H](C)Oc1ccc(-c2cc(C(=O)O)ncn2)cc1Cl [Compound 4, (S)-6-(4-sec-butoxy-3-chlorophenyl)pyrimidine-4-carboxylic acid]
inhibition at 10 µM [1]: 100%

Compound: O=C(O)c1cccnc1C(=O)O [QUIN, quinolinic acid]
affinity for NR2B subunit [2]: 100 µmol | affinity for NR2A subunit [3]: 7 to 10 µmol

Compound: Nc1ccccc1C(=O)CC(N)C(=O)O (stereo not drawn) [kynurenine, reference compound]
3-OH-KYN in striatum [4]: increases | AA in striatum [4]: little or no effect | KYN in striatum [4]: little or no effect | KYNA in striatum [4]: little or no effect | QA in striatum [4]: increases

inhibition at 10 µM [1]: 100%
Compound: O=C(O)c1cc(-c2ccc(OC3CC3)c(Cl)c2)ncn1 [Compound 6, 6-(3-chloro-4-cyclopropoxyphenyl)pyrimidine-4-carboxylic acid]
3-HK in striatum extracellular space [5]: insufficient modulation; also recorded: little or no effect | AA in striatum extracellular space [5]: dose dependent increases | KYN in striatum extracellular space [5]: dose dependent increases | KYNA in striatum extracellular space [5]: dose dependent increases | KP metabolite KYNA in striatum, HD mice ([6]; Q175_KI homozygous (HD) mice): dose dependent increase; also recorded: increases | KP metabolite KYNA in striatum, WT mice ([6]; wild type mice): dose dependent increase; also recorded: increases | 3-OH-KYN in striatum [4]: blocks | AA in striatum [4]: increases | KYN in striatum [4]: increases | KYNA in striatum [4]: increases | QA in striatum [4]: blocks
